In patent US20260028326A1, “COMPOUND BASED ON ISOINDOLINE-SUBSTITUTED GLUTARIMIDE BACKBONE AND USE THEREOF” (GLUETACS THERAPEUTICS (SHANGHAI) CO., LTD., priority 2022, published 2026) one finds IC50 data, which are given here for 17 compounds.

A word on the pIC50: it is the negative decadic logarithm of the IC50, by convention in mol/L. A high value points to a low IC50.

pIC50: −log10 of the molar value.

human Cereblon WT GST-tagged protein, sequence (Q96SW2 whole entry): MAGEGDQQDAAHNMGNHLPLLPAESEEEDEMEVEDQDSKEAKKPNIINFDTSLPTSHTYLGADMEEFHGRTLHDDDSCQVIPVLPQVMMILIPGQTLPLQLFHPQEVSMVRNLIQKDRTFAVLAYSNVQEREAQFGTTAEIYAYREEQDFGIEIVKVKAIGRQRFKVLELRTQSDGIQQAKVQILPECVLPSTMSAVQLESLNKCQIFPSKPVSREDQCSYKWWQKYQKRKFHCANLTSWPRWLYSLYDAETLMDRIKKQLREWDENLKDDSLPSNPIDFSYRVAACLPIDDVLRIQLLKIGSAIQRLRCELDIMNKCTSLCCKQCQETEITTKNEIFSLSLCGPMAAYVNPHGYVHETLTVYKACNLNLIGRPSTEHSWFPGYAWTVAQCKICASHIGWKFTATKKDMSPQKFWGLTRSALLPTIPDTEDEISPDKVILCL

The target of this experiment is human Cereblon WT GST-tagged protein (Homo sapiens (Human), UniProt Q96SW2). Put plainly: CRBN-binding affinity, HTRF (CEREBLON BINDING kit). In a few lines:
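GST-tagged human WT Cereblon incubated with compound, then Thalidomide-Re tracer and anti-GST Eu antibody added. Displacement read by HTRF, reported as CRBN binding inhibition rate against blank control wells without protein.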
For orientation: In TR-FRET formats the signal depends on donor and acceptor labels being close together.
With `O=C1CCC(N2Cc3cc(CN4CCN(C(=O)C5=C(c6ccc(F)cc6)CCCC5)CC4)cc(F)c3C2=O)C(=O)N1` (centres unmarked) [GT-05474, 3-(7-fluoro-5-((4-(4′-fluoro-3,4,5,6-tetrahydro-[1,1′-biphenyl]-2-carbonyl)piperazin-1-yl)methyl)-1-oxoisoindolin-2-yl)piperidine-2,6-dione], the pIC50 is 5.93.

Consider `CC1(C)CCC(CN2C3CC2CN(C(=O)c2ccc4c(c2)CN(C2CCC(=O)NC2=O)C4=O)C3)=C(c2ccc(Cl)cc2)C1` (centres unmarked) [GT-05457, 3-(5-(6-((4′-chloro-5,5-dimethyl-3,4,5,6-tetrahydro-[1,1′-biphenyl]-2-yl)methyl)-3,6-diazabicyclo[3.1.1]heptane-3-carbonyl)-1-oxoisoindolin-2-yl)piperidine-2,6-dione], for which the pIC50 is 5.90.

For the compound `CC1(C)CCC(CN2CC3CCC2CN3Cc2cc3c(cc2F)C(=O)N(C2CCC(=O)NC2=O)C3)=C(c2ccc(Cl)cc2)C1` (centres unmarked) [GT-05460, 3-(5-((5-((4′-chloro-5,5-dimethyl-3,4,5,6-tetrahydro-[1,1′-biphenyl]-2-yl)methyl)-2,5-diazabicyclo[2.2.2]octan-2-yl)methyl)-6-fluoro-1-oxoisoindolin-2-yl)piperidine-2,6-dione], the pIC50 is 5.79.

The compound `CC1(C)CCC(CN2CC(Cc3ccc4c(c3)CN(C3CCC(=O)NC3=O)C4=O)C2)=C(c2ccc(F)cc2)C1` (centres unmarked) [GT-05493, 3-(5-((1-((4′-fluoro-5,5-dimethyl-3,4,5,6-tetrahydro-[1,1′-biphenyl]-2-yl)methyl)azetidin-3-yl)methyl)-1-oxoisoindolin-2-yl)piperidine-2,6-dione] gave a negative-log IC50 (pIC50) of 6.12.

Compound `CC1(C)CCC(CN2CC3CCC2CN3Cc2ccc3c(c2)C(=O)N(C2CCC(=O)NC2=O)C3)=C(c2ccc(Cl)cc2)C1` (centres unmarked) [GT-05485, 3-(6-((5-((4′-chloro-5,5-dimethyl-3,4,5,6-tetrahydro-[1,1′-biphenyl]-2-yl)methyl)-2,5-diazabicyclo[2.2.2]octan-2-yl)methyl)-1-oxoisoindolin-2-yl)piperidine-2,6-dione] gave a pIC50 of 6.13.

The compound `CC1(C)CCC(C(=O)N2CC3CC(C2)N3Cc2ccc3c(c2)CN(C2CCC(=O)NC2=O)C3=O)=C(c2ccc(Cl)cc2)C1` (centres unmarked) [GT-05521, 3-(5-((3-(4′-chloro-5,5-dimethyl-3,4,5,6-tetrahydro-[1,1′-biphenyl]-2-carbonyl)-3,6-diazabicyclo[3.1.1]heptan-6-yl)methyl)-1-oxoisoindolin-2-yl)piperidine-2,6-dione] showed a negative-log IC50 (pIC50) of 6.21.

In turn, `CC1(C)CCC(CN2C3CCC2CN(C(=O)c2ccc4c(c2)CN(C2CCC(=O)NC2=O)C4=O)C3)=C(c2ccc(F)cc2)C1` (centres unmarked) [GT-05511, 3-(5-(8-((4′-fluoro-5,5-dimethyl-3,4,5,6-tetrahydro-[1,1′-biphenyl]-2-yl)methyl)-3,8-diazabicyclo[3.2.1]octane-3-carbonyl)-1-oxoisoindolin-2-yl)piperidine-2,6-dione] gave a pIC50 of 5.71.

Consider `CC1(C)CCC(CN2CC3CCC(C2)N3Cc2ccc3c(c2)CN(C2CCC(=O)NC2=O)C3=O)=C(c2ccc(Cl)cc2)C1` (centres unmarked) [GT-03889, 3-(5-((3-((4′-chloro-5,5-dimethyl-3,4,5,6-tetrahydro-[1,1′-biphenyl]-2-yl)methyl)-3,8-diazabicyclo[3.2.1]octan-8-yl)methyl)-1-oxoisoindolin-2-yl)piperidine-2,6-dione], for which the pIC50 was 6.15.

`CC1(C)CCC(CN2CCN(CCc3ccc4c(c3)CN(C3CCC(=O)NC3=O)C4=O)CC2)=C(c2ccc(Cl)cc2)C1` (centres unmarked) [GT-05361, 3-(5-(2-(4-((4′-chloro-5,5-dimethyl-3,4,5,6-tetrahydro-[1,1′-biphenyl]-2-yl)methyl)piperazin-1-yl)ethyl)-1-oxoisoindolin-2-yl)piperidine-2,6-dione] had a pIC50 of 6.43.

Regarding `CC1(C)CCC(C(=O)N2CC(Cc3ccc4c(c3)CN(C3CCC(=O)NC3=O)C4=O)C2)=C(c2ccc(F)cc2)C1` (centres unmarked) [GT-05488, 3-(5-((1-(4′-fluoro-5,5-dimethyl-3,4,5,6-tetrahydro-[1,1′-biphenyl]-2-carbonyl)azetidin-3-yl)methyl)-1-oxoisoindolin-2-yl)piperidine-2,6-dione], the negative-log IC50 (pIC50) is 6.22.

`CC1(C)CCC(C(=O)N2CC(=Cc3ccc4c(c3)CN(C3CCC(=O)NC3=O)C4=O)C2)=C(c2ccc(F)cc2)C1` (centres unmarked) [GT-05489, 3-(5-((1-(4′-fluoro-5,5-dimethyl-3,4,5,6-tetrahydro-[1,1′-biphenyl]-2-carbonyl)azetidin-3-ylidene)methyl)-1-oxoisoindolin-2-yl)piperidine-2,6-dione] gave a pIC50 of 6.21.

`CC1(C)CCC(CN2CCC(Nc3ccc4c(c3)CN(C3CCC(=O)NC3=O)C4=O)CC2)=C(c2ccc(F)cc2)C1` (centres unmarked) [GT-05785, 3-(5-((1-((4′-fluoro-5,5-dimethyl-3,4,5,6-tetrahydro-[1,1′-biphenyl]-2-yl)methyl)piperidin-4-yl)amino)-1-oxoisoindolin-2-yl)piperidine-2,6-dione] had a pIC50 of 5.90.

For `O=C1CCC(N2Cc3ccc(CN4CCN(CC5=C(c6ccc(F)cc6)CCCC5)CC4)cc3C2=O)C(=O)N1` (centres unmarked) [GT-05465, 3-(6-((4-((4′-fluoro-3,4,5,6-tetrahydro-[1,1′-biphenyl]-2-yl)methyl)piperazin-1-yl)methyl)-1-oxoisoindolin-2-yl)piperidine-2,6-dione], the negative logarithm of the IC50 (pIC50) was 6.08.

Compound `CC1(C)CCC(CN2CCCN(C(=O)c3ccc4c(c3)CN(C3CCC(=O)NC3=O)C4=O)CC2)=C(c2ccc(F)cc2)C1` (centres unmarked) [GT-05505, 3-(5-(4-((4′-fluoro-5,5-dimethyl-3,4,5,6-tetrahydro-[1,1′-biphenyl]-2-yl)methyl)-1,4-diazepane-1-carbonyl)-1-oxoisoindolin-2-yl)piperidine-2,6-dione] showed a pIC50 of 6.09.

For the compound `CC1(C)CCC(CN2C3CCC2CN(c2ccc4c(c2)CN(C2CCC(=O)NC2=O)C4=O)C3)=C(c2ccc(Cl)cc2)C1` (centres unmarked) [GT-05429, 3-(5-(8-((4′-chloro-5,5-dimethyl-3,4,5,6-tetrahydro-[1,1′-biphenyl]-2-yl)methyl)-3,8-diazabicyclo[3.2.1]octan-3-yl)-1-oxoisoindolin-2-yl)piperidine-2,6-dione], the pIC50 was 5.83.

The compound `CC1(C)CCC(CN2CC3CCC2CN3Cc2cc(F)c3c(c2)CN(C2CCC(=O)NC2=O)C3=O)=C(c2ccc(Cl)cc2)C1` (centres unmarked) [GT-05781, 3-(5-((5-((4′-chloro-5,5-dimethyl-3,4,5,6-tetrahydro-[1,1′-biphenyl]-2-yl)methyl)-2,5-diazabicyclo[2.2.2]octan-2-yl)methyl)-7-fluoro-1-oxoisoindolin-2-yl)piperidine-2,6-dione] showed a pIC50 of 6.15.

The compound `CC1(C)CCC(CN2CCN(Cc3cccc4c3CN(C3CCC(=O)NC3=O)C4=O)CC2)=C(c2ccc(F)cc2)C1` (centres unmarked) [GT-05393, 3-(4-((4-((4′-fluoro-5,5-dimethyl-3,4,5,6-tetrahydro-[1,1′-biphenyl]-2-yl)methyl)piperazin-1-yl)methyl)-1-oxoisoindolin-2-yl)piperidine-2,6-dione] had a pIC50 of 6.47.
